{
  "source": "patent US4554367A",
  "about": "“Phosphonium organohalogenostannates-IV” (priority 1982, dated 1985)",
  "key": {"Venturia inaequalis": {"test_system": "Venturia inaequalis", "assay": "Residual protective action against Venturia inaequalis on apple shoots", "type": "in vivo", "conditions": "0.02% of active substance, 15 days after infection", "method": "Residual protective action against Venturia inaequalis on apple shoots\nApple cuttings with fresh shoots 10-20 cm long were sprayed with a spray liquor (0.02% of active substance) prepared from a wettable powder of the active substance. After 24 hours, the treated plants were infected with a conidia suspension of the fungus. The plants were then incubated at 90-100% relative atmospheric humidity for 5 days and were placed in a greenhouse at 20°-24° C. for 10 further days. The scab attack was evaluated 15 days after the infection. Compounds nos. 18, 5 and 9 and others inhibited the disease attack to less than 10%."}, "[1]": {"test_system": "Alkaligenes denitrificans", "assay": "MIC against bacteria, strain E", "type": "cell-based", "conditions": "24 h, 30° C., tested at 100 or 300 mg/liter", "method": "(§1) Determination of the minimum inhibitory concentration (MIC) against bacteria\n(§2) ONCs (cultures incubated overnight) of the bacteria strains A-F grown in Caso-Peptone broth (Merck) are each diluted […] in saline. An amount of the suspension is introduced into Caso-Peptone broth such that the bacteria are again diluted 1:1,000. The cultures are treated with 100 or 300 mg/liter of the phosphonium stannates shown in Table B. After incubation at 30° C. in a shaking water bath for 24 hours, the cultures are evaluated on the basis of cloudiness. The MIC is the concentration at which the broth is not clouded by bacterial growth."}, "Aspergillus phoenicia": {"test_system": "Aspergillus phoenicia", "assay": "MIC against fungi, strain H", "type": "cell-based", "conditions": "malt extract agar", "method": "(§3) Determination of the minimum inhibitory concentration (MIC) against fungi\n(§4) The investigation is carried out in malt extract agar (Merck) by the known agar incorporation test using the fungi\n(§5) For inhibition, the various compounds are in each case added in amounts such that concentrations of […] results in the agar. The concentrations (mg/liter) required for inhibition of the growth of the fungi (starting from traces of fungi dripped on) are illustrated in Table D."}, "Artemia salina": {"test_system": "Artemia salina", "assay": "Action against Artemia salina", "type": "in vivo", "design": "key: 0: nauplii not affected; 1: slight change; 1-2: nauplii affected; 2: nauplii severely affected; 2-3: almost all nauplii dead; 3: all nauplii dead", "source_text": "Determination of the action against Artemia salina\nThe commercially available eggs are caused to hatch under powerful aeration. […]"}, "Serratia marcenscens": {"test_system": "Serratia marcenscens", "assay": "MIC against bacteria, strain D", "type": "cell-based", "conditions": "24 h, 30° C., tested at 100 or 300 mg/liter", "method": "as §1, §2"}, "Aspergillus niger": {"test_system": "Aspergillus niger", "assay": "MIC against fungi, strain G", "type": "cell-based", "conditions": "malt extract agar", "method": "as §3, §4"}, "Chaetomium globosum": {"test_system": "Chaetomium globosum", "assay": "MIC against fungi, strain O", "type": "cell-based", "conditions": "malt extract agar", "method": "as §3, §4, §5"}, "Pseudomonas aeruginosa": {"test_system": "Pseudomonas aeruginosa", "assay": "MIC against bacteria, strain B", "type": "cell-based", "conditions": "24 h, 30° C., tested at 100 or 300 mg/liter", "method": "as §1, §2"}, "Proteus vulgaris": {"test_system": "Proteus vulgaris", "assay": "MIC against bacteria, strain A", "type": "cell-based", "conditions": "24 h, 30° C., tested at 100 or 300 mg/liter", "method": "as §1, §2"}, "Enterobacter aerogenes": {"test_system": "Enterobacter aerogenes", "assay": "MIC against bacteria, strain C", "type": "cell-based", "conditions": "24 h, 30° C., tested at 100 or 300 mg/liter", "method": "as §1, §2"}, "Alternaria alternata": {"test_system": "Alternaria alternata", "assay": "MIC against fungi, strain J", "type": "cell-based", "conditions": "malt extract agar", "method": "as §3, §4, §5"}, "[2]": {"test_system": "Enteromorpha intestinalis", "assay": "Action against Enteromorpha intestinalis", "type": "cell-based", "method": "(b) Enteromorpha intestinalis\nThe action against the green alga Enteromorpha most important in sea water fouling is investigated in sterile-filtered sea water containing Erd-Schreiber solution. The solution is composed of a nutrient extract, phosphate and nitrate. Incubation of the Enteromorpha intestinalis takes place in a light thermostat at 18° C. under a 14 hours light/10 hours dark cycle.\nThe algae grown in this manner are exposed for a short time (4 hours), in sea water, to the products to be investigated. The minimum killing concentration (MKC) is determined by removing the algae from the sea water containing a certain amount of algicide at the end of the period of action, washing them and investigating them for growth or destruction after renewed incubation in fresh sea water for 6 to 8 weeks.\nThe minimum killing concentration (MKC) is the amount of substance required to harm the alga within a certain period of time to the extent that it can no longer recover in fresh sea water and dies off.\nTo determine the inhibitory concentration (MIC), the alga is kept in sea water containing biocide throughout the entire duration of the experiment (concentration tested: 0.1 and 0.5 mg/liter)."}, "Aureobasidium pullulans": {"test_system": "Aureobasidium pullulans", "assay": "MIC against fungi, strain N", "type": "cell-based", "conditions": "malt extract agar", "method": "as §3, §4\nN Aureobasidium pullulans\nas §5"}, "Bacillus subtilis": {"test_system": "Bacillus subtilis", "assay": "MIC against bacteria, strain F", "type": "cell-based", "conditions": "24 h, 30° C., tested at 100 or 300 mg/liter", "method": "as §1, §2"}, "Endomyces geotrichum": {"test_system": "Endomyces geotrichum", "assay": "MIC against fungi, strain M", "type": "cell-based", "conditions": "malt extract agar", "method": "as §3, §4, §5"}, "Candida albicans": {"test_system": "Candida albicans", "assay": "MIC against fungi, strain L", "type": "cell-based", "conditions": "malt extract agar", "method": "as §3, §4, §5"}, "Chlorella vulgaris": {"test_system": "Chlorella vulgaris", "assay": "Action against Chlorella vulgaris", "type": "cell-based", "design": "key to Growth in the medium: 1: no growth in the medium, 3 ppm have a growthinhibiting action; key to Growth on the agar: 2: no growth on the agar, 3 ppm have destroyed the algae within 6 hours", "conditions": "3 mg/liter", "method": "Determination of the action against algae\nA Chlorella vulgaris culture grown for 14 days in algae nutrient medium is diluted 1:200 in algae nutrient medium. Each of the compounds listed in Table E is then added such that a concentration of 3 mg/liter results. After incubation for 6 hours, 10 μl are in each case withdrawn and dripped onto algae agar in order to determine the destructive action."}, "Penicillium funiculosum": {"test_system": "Penicillium funiculosum", "assay": "MIC against fungi, strain I", "type": "cell-based", "conditions": "malt extract agar", "method": "as §3, §4\nI Penicillium funiculosum\nas §5"}, "[3]": {"test_system": "Cladosporium cladosporioides", "assay": "MIC against fungi, strain K", "type": "cell-based", "conditions": "malt extract agar", "method": "as §3, §4\nK Cladosporium cladosporioides\nas §5"}},
  "data": [
    {"smiles": "CCCCCCCCCCCCCC[P+](CCCC)(CCCC)CCCC.[Cl][Sn-]([Cl])([CH]1CCCCC1)([CH]1CCCCC1)[CH]1CCCCC1", "note": "[Example 18, tri-n-bytyl-n-tetradecyl-phosphonium tricyclohexyldichlorostannate]", "values": [
      {"measurement": "disease (scab) attack (inhibited to less than)", "setting": "Venturia inaequalis", "result": "less than 10%"}
    ]},
    {"smiles": "CCCCCCCCCCCCCC[P+](CCCC)(CCCC)CCCC.[CH3][Sn-]([CH3])([Cl])([Cl])[Cl]", "note": "[Example 20]", "values": [
      {"measurement": "MIC", "setting": "[1]", "result": 100, "unit": "µg/mL"},
      {"measurement": "MIC against fungi", "setting": "Aspergillus phoenicia", "result": 50, "unit": "µg/mL"},
      {"measurement": "Action against Artemia salina", "setting": "Artemia salina; 0.25 mg/liter, 6 hours", "result": 0},
      {"measurement": "Action against Artemia salina", "setting": "Artemia salina; 0.25 mg/liter, 24 hours", "result": "1-2"},
      {"measurement": "Action against Artemia salina", "setting": "Artemia salina; 0.25 mg/liter, 48 hours", "result": "2-3"},
      {"measurement": "Action against Artemia salina", "setting": "Artemia salina; 0.5 mg/liter, 6 hours", "result": 1},
      {"measurement": "Action against Artemia salina", "setting": "Artemia salina; 0.5 mg/liter, 24 hours", "result": 2},
      {"measurement": "Action against Artemia salina", "setting": "Artemia salina; 0.5 mg/liter, 48 hours", "result": 3},
      {"measurement": "Action against Artemia salina", "setting": "Artemia salina; 1 mg/liter, 6 hours", "result": 2},
      {"measurement": "Action against Artemia salina", "setting": "Artemia salina; 1 mg/liter, 24 hours", "result": "2-3"},
      {"measurement": "Action against Artemia salina", "setting": "Artemia salina; 1 mg/liter, 48 hours", "result": 3},
      {"measurement": "Action against Artemia salina", "setting": "Artemia salina; 2.5 mg/liter, 6 hours", "result": "1-2"},
      {"measurement": "Action against Artemia salina", "setting": "Artemia salina; 2.5 mg/liter, 24 hours", "result": 3},
      {"measurement": "Action against Artemia salina", "setting": "Artemia salina; 2.5 mg/liter, 48 hours", "result": 3},
      {"measurement": "MIC", "setting": "Serratia marcenscens", "result": 100, "unit": "µg/mL"},
      {"measurement": "MIC against fungi", "setting": "Aspergillus niger", "result": 50, "unit": "µg/mL"},
      {"measurement": "MIC against fungi", "setting": "Chaetomium globosum", "result": 10, "unit": "µg/mL"},
      {"measurement": "MIC", "setting": "Pseudomonas aeruginosa", "result": 100, "unit": "µg/mL"},
      {"measurement": "MIC", "setting": "Proteus vulgaris", "result": 100, "unit": "µg/mL"},
      {"measurement": "MIC", "setting": "Enterobacter aerogenes", "result": 100, "unit": "µg/mL"},
      {"measurement": "MIC against fungi", "setting": "Alternaria alternata", "result": 50, "unit": "µg/mL"},
      {"measurement": "Destruction 5 mg/liter", "setting": "[2]; 5 mg/liter, 4 hours exposure in sea water, re-incubation 6 to 8 weeks", "result": "yes"},
      {"measurement": "MIC", "setting": "[2]; kept in sea water containing biocide throughout, tested 0.1 and 0.5 mg/liter", "result": "> 0.5", "unit": "µg/mL"},
      {"measurement": "MIC against fungi", "setting": "Aureobasidium pullulans", "result": 10, "unit": "µg/mL"},
      {"measurement": "MIC", "setting": "Bacillus subtilis", "result": 100, "unit": "µg/mL"},
      {"measurement": "MIC against fungi", "setting": "Endomyces geotrichum", "result": 10, "unit": "µg/mL"},
      {"measurement": "MIC against fungi", "setting": "Candida albicans", "result": 10, "unit": "µg/mL"},
      {"measurement": "Growth on the agar", "setting": "Chlorella vulgaris; 6 hours exposure (algae-destruction action)", "result": 2},
      {"measurement": "Growth in the medium", "setting": "Chlorella vulgaris; 14 days (inhibition of growth)", "result": 1},
      {"measurement": "MIC against fungi", "setting": "Penicillium funiculosum", "result": 10, "unit": "µg/mL"},
      {"measurement": "MIC against fungi", "setting": "[3]", "result": 10, "unit": "µg/mL"}
    ]}
  ]
}
